Legend:
AAK1 [1] = target: T1, AAK1 (Homo sapiens, UniProt Q2M2I8); assay: P81 filter plate assay; assay type: biochemical; conditions: full-length human AAK1, Mu2 substrate, 33P-ATP
T1 construct: NP_055726.2
How it was run: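 Full-length human AAK1 (0.2 nM, 2×) was pre-incubated 10 min at RT with compounds (top concentration 96 μM in the dilution plate), then reacted 1 h at RT with full-length human Mu2 (0.2 μM, 2×), cold ATP (2 μM, 2×) and ³³P-ATP. Reactions were stopped with phosphoric acid and captured on P81 filters for scintillation counting.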

AAK1 [2] = target: T1, AAK1; assay: HEK281 cell-based assay (CBA); conditions: HEK293F cells transfected with full length human AAK1 and AP2M1; phospho-mu2 Western blot; 3 hours incubation
How it was run: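 HEK293F cells co-transfected with full-length human AAK1/HA and Flag-AP2M1 (mu2), then treated in suspension with compounds (5 concentrations, 3-fold steps) in DMEM+0.5% FBS for 3 hours at 37° C. Phospho-mu2 and total mu2 (anti-Flag) assessed by Western blot.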

T1 sequence (Q2M2I8 1-863 isoform Q2M2I8-2): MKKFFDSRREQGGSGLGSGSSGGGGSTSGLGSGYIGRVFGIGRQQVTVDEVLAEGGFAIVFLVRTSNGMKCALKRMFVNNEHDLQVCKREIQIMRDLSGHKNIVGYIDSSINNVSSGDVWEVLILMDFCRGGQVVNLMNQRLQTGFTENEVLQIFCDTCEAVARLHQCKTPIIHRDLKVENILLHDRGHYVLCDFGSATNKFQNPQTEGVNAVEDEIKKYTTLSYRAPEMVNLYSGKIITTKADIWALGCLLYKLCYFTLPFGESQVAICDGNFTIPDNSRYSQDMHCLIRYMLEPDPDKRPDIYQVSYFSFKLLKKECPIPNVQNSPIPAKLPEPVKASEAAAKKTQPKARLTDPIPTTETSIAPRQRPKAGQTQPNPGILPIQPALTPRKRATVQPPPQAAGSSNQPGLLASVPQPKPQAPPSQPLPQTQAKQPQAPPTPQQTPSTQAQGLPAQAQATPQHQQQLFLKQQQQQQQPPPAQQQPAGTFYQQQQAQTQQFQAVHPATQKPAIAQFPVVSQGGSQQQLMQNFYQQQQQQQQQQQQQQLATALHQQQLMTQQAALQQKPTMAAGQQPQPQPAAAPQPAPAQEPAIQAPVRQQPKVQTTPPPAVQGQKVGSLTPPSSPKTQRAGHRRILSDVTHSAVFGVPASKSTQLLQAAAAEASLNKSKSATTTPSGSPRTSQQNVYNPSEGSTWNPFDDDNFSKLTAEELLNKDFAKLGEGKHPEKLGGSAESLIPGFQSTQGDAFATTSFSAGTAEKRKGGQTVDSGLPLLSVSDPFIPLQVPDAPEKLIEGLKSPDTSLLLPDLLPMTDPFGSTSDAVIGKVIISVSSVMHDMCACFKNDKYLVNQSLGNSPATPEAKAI

| Compound | melting point | IC50 (AAK1 [1]) | IC50 (AAK1 [2]) |
| --- | --- | --- | --- |
| CN(CCNc1ccn2ncc(-c3cccs3)c2n1)C(=O)OC(C)(C)C [Example 5.6.4, Methyl-[2-(3-thiophen-2-yl-pyrazolo[1,5-a]pyrimidin-5-ylamino)-ethyl]-carbamic acid tert-butyl ester] | 140 to 141 °C | – | – |
| COc1cc(C)c(F)cc1-c1cnn2ccc(N3CCN(C(=O)OC(C)C)CC3)nc12 [isopropyl 4-(3-(5-fluoro-2-methoxy-4-methylphenyl)pyrazolo[1,5-a]pyrimidin-5-yl)piperazine-1-carboxylate] | – | ≤ 10 nM | ≤ 10 nM |
| COc1ccc(F)cc1-c1cnn2ccc(N3CCN(C(=O)OC(C)C)CC3)nc12 [isopropyl 4-(3-(5-fluoro-2-methoxyphenyl)pyrazolo[1,5-a]pyrimidin-5-yl)piperazine-1-carboxylate] | – | ≤ 10 nM | ≤ 10 nM |
| COc1cccc(-c2cnn3ccc(N4CCN(C(=O)OC(C)C)CC4)nc23)n1 [isopropyl 4-(3-(6-methoxypyridin-2-yl)pyrazolo[1,5-a]pyrimidin-5-yl)piperazine-1-carboxylate] | – | ≤ 10 nM | ≤ 100 nM |
| COc1nc(C)ccc1-c1cnn2ccc(N(C)CCCN(C)C(=O)OC(C)C)nc12 [isopropyl (3-((3-(2-methoxy-6-methylpyridin-3-yl)pyrazolo[1,5-a]pyrimidin-5-yl)(methyl)amino)propyl)(methyl)carbamate] | – | ≤ 10 nM | ≤ 100 nM |
| COc1ncccc1-c1cnn2ccc(N(C)CCCN(C)C(=O)OC(C)C)nc12 [isopropyl (3-((3-(2-methoxypyridin-3-yl)pyrazolo[1,5-a]pyrimidin-5-yl)(methyl)amino)propyl)(methyl)carbamate] | – | ≤ 10 nM | ≤ 100 nM |
| COc1ncccc1-c1cnn2ccc(N3CCN(C(=O)OC4COC4)CC3)nc12 [oxetan-3-yl 4-(3-(2-methoxypyridin-3-yl)pyrazolo[1,5-a]pyrimidin-5-yl)piperazine-1-carboxylate] | – | ≤ 10 nM | ≤ 10 nM |
| CCCOC(=O)N1CCN(c2ccn3ncc(-c4ccc(C)nc4OC)c3n2)CC1 [propyl 4-(3-(2-methoxy-6-methylpyridin-3-yl)pyrazolo[1,5-a]pyrimidin-5-yl)piperazine-1-carboxylate] | – | ≤ 10 nM | ≤ 10 nM |
| CCCOC(=O)N1CCN(c2ccn3ncc(-c4cccnc4OC)c3n2)CC1 [propyl 4-(3-(2-methoxypyridin-3-yl)pyrazolo[1,5-a]pyrimidin-5-yl)piperazine-1-carboxylate] | – | ≤ 10 nM | ≤ 100 nM |
| CCCOC(=O)N1CCN(c2ccn3ncc(-c4cc(F)cnc4OC)c3n2)CC1 [propyl 4-(3-(5-fluoro-2-methoxypyridin-3-yl)pyrazolo[1,5-a]pyrimidin-5-yl)piperazine-1-carboxylate] | – | ≤ 10 nM | ≤ 100 nM |
| [2H]C([2H])([2H])Oc1ncccc1-c1cnn2ccc(N3CCN(C(=O)OC(C)(C)C)CC3)nc12 [tert-butyl 4-(3-(2-d3-methoxypyridin-3-yl)pyrazolo[1,5-a]pyrimidin-5-yl)piperazine-1-carboxylate] | – | ≤ 10 nM | ≤ 10 nM |
| CCOc1ncccc1-c1cnn2ccc(N3CCN(C(=O)OC(C)(C)C)CC3)nc12 [tert-butyl 4-(3-(2-ethoxypyridin-3-yl)pyrazolo[1,5-a]pyrimidin-5-yl)piperazine-1-carboxylate] | – | ≤ 10 nM | ≤ 10 nM |
| COc1nc(C)ccc1-c1cnn2ccc(N3CCN(C(=O)OC(C)(C)C)CC3)nc12 [tert-butyl 4-(3-(2-methoxy-6-methylpyridin-3-yl)pyrazolo[1,5-a]pyrimidin-5-yl)piperazine-1-carboxylate] | – | ≤ 10 nM | ≤ 10 nM |
| COc1ncccc1-c1cnn2ccc(N3CCN(C(=O)OC(C)(C)C)CC3)nc12 [tert-butyl 4-(3-(2-methoxypyridin-3-yl)pyrazolo[1,5-a]pyrimidin-5-yl)piperazine-1-carboxylate] | – | ≤ 10 nM | ≤ 10 nM |
| COc1ccc(F)cc1-c1cnn2ccc(N3CCN(C(=O)OC(C)(C)C)CC3)nc12 [tert-butyl 4-(3-(5-fluoro-2-methoxyphenyl)pyrazolo[1,5-a]pyrimidin-5-yl)piperazine-1-carboxylate] | – | ≤ 10 nM | ≤ 10 nM |
| COc1ncc(F)cc1-c1cnn2ccc(N3CCN(C(=O)OC(C)(C)C)CC3)nc12 [tert-butyl 4-(3-(5-fluoro-2-methoxypyridin-3-yl)pyrazolo[1,5-a]pyrimidin-5-yl)piperazine-1-carboxylate] | – | ≤ 10 nM | ≤ 100 nM |
| COc1ncccc1-c1cnn2ccc(N3CCN(C(=O)OC4CCOCC4)CC3)nc12 [tetrahydro-2H-pyran-4-yl 4-(3-(2-methoxypyridin-3-yl)pyrazolo[1,5-a]pyrimidin-5-yl)piperazine-1-carboxylate] | – | ≤ 10 nM | ≤ 100 nM |

— US9403832B2, “Pyrazolo[1,5-a]pyrimidine-based compounds, compositions comprising them, and methods of their use” (Lexicon Pharmaceuticals, Inc., priority 2012, dated 2016)
